Assay results from patent publication US20060063759A1, “Tricyclic steroid hormone nuclear receptor modulators” (priority 2002, published 2006).

How the values were obtained:
human MR = biological target: T1, human MR (Homo sapiens, UniProt P08235); assay: Mineralocorticoid Receptor Binding Assay ([3H]-aldosterone); details: [3H]-aldosterone binding, human MR expressed in Sf9 cells; read-out: MR Ki
T1 construct: The full length human MR gene is cloned from a human kidney or human brain cDNA library; His tag from the pAcHLT vector (own knowledge); made in house; host or cells: Sf9 insect cells (baculovirus, pAcHLT transfer vector)
T1 sequence (P08235 1-984): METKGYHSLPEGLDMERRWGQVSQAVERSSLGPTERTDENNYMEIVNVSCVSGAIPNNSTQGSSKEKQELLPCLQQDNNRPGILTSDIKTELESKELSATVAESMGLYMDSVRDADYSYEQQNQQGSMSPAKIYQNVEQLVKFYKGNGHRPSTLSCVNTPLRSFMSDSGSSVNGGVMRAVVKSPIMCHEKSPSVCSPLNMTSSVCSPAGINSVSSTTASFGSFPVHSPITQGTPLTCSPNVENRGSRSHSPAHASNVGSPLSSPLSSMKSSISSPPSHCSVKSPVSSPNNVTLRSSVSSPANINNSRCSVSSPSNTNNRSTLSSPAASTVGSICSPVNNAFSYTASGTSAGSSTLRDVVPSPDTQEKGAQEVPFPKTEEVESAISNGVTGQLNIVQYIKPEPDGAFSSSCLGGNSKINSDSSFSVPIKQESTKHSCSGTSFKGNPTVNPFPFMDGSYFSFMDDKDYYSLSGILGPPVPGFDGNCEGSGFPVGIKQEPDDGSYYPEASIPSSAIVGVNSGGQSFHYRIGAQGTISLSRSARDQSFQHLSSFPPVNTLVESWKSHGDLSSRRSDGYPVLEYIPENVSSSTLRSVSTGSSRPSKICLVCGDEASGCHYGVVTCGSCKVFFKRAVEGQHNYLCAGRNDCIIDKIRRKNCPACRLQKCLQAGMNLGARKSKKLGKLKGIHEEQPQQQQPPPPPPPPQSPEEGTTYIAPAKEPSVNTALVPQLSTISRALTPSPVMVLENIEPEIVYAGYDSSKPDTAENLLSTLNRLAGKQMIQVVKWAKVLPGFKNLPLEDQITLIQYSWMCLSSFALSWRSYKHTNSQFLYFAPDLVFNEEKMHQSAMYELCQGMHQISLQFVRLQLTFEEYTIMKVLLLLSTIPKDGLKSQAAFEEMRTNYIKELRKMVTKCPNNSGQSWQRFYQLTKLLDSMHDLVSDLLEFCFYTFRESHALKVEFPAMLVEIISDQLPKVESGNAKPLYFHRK
Procedure, shortened: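 Receptor source: freeze-thaw lysate of baculovirus-infected Sf9 cells carrying full-length human MR, 20-25 μg protein. Incubation ~16 h at 4 °C with shaking, pH 7.5 buffer containing 30 mM sodium molybdate and 10% glycerol.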

glucocorticoid receptor = biological target: T2, glucocorticoid receptor (Homo sapiens, UniProt P04150); assay: Glucocorticoid Receptor Binding Assay ([3H]-dexamethasone, A549 cell extract); details: [3H]-dexamethasone binding, read-out: GR Ki
T2 construct: containing 50-200 ug of A549 cell extract and 1.86 nM [^3H]-dexamethasone; host or cells: A549 human lung epithelial cells (sonicated cell extract)
T2 sequence (P04150 1-777): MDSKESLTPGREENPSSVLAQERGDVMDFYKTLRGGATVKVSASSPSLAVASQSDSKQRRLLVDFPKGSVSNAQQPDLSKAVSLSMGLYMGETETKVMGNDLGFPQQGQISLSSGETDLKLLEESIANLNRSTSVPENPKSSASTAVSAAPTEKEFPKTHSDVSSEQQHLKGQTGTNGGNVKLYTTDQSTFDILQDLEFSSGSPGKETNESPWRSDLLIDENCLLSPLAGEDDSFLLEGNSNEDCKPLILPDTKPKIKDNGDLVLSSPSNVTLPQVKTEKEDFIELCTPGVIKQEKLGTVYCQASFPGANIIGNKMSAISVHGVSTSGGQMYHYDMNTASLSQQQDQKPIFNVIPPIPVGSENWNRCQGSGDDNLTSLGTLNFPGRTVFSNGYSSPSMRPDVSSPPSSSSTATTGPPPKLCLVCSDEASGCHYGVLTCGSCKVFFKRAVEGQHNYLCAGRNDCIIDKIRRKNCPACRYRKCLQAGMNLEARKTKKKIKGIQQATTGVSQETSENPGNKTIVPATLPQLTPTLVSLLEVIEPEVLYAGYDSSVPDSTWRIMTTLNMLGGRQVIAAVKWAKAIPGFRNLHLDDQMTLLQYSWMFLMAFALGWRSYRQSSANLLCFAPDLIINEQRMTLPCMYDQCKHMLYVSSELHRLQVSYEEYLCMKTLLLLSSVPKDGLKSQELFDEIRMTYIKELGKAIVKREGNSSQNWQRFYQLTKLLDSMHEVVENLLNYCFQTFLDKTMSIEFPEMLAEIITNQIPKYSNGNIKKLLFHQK
Procedure, shortened: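 Displacement of [3H]-dexamethasone (1.86 nM) from glucocorticoid receptor in sonicated A549 lung epithelial cell extracts, 16 h at 4 °C, pH 7.2 molybdate-containing buffer. Bound radioactivity was scintillation-counted after charcoal/dextran stripping of free ligand.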

Compound	Ki (human MR)	Ki (glucocorticoid receptor)
CS(=O)(=O)Nc1cccc(C[C@H]2c3ccccc3CCc3ncccc32)c1 [Example 517]	< 500 nM	< 1000 nM
COC(=O)c1ccc(/C=C2\c3ccc(F)cc3CCc3ncccc32)cc1 [Example 584]	< 1000 nM	< 10000 nM
Nc1cccc(C=C2c3ccccc3CCc3ccsc32)c1 [Example 498]	< 500 nM	< 1000 nM
O=C1Cc2ccc(C=C3c4ccccc4CCc4ccccc43)cc2N1 [Example 447]	< 500 nM	< 500 nM
CS(=O)(=O)Nc1ccc(C=C2c3ccccc3CCc3cc(Cl)ccc32)cc1 [Example 395]	< 500 nM	< 10000 nM
O=c1[nH]c2ccc(C=C3c4ccccc4OCc4c(F)cccc43)cc2[nH]1 [Example 713]	< 500 nM	< 500 nM
O=c1[nH]c2ccc(/C=C3\c4ccccc4COc4c(F)cccc43)cc2[nH]1 [Example 642]	< 500 nM	< 1000 nM
CCS(=O)(=O)Nc1cccc(C=C2c3ccccc3CCc3c(Cl)cccc32)c1 (mixture of isomers) [Example 208(a), Ethanesulfonic acid [3-(1-chloro-10,11-dihydro-dibenzo[a,d]cyclohepten-5-ylidenemethyl)-phenyl]-amide]	< 500 nM	< 500 nM
O=c1[nH]c2ccc(/C=C3\c4ccc(Cl)cc4COc4ccccc43)cc2[nH]1 [Example 641]	< 500 nM	< 1000 nM
O=c1[nH]c2cc(/C=C3/c4ccccc4COc4cc(F)ccc43)ccc2n1CCN1CCOCC1 [Example 712]	< 500 nM	< 500 nM
Cn1cnc(S(=O)(=O)Nc2ccc(C=C3c4ccccc4CCc4ccccc43)cc2)c1 [Example 143, 1-Methyl-1H-imidazole-4-sulfonic acid [4-(10,11-dihydro-dibenzo[a,d]cyclohepten-5-ylidenemethyl)-phenyl]-amide]	< 500 nM	< 10000 nM
Cc1ccc2c(c1)CCc1cc(F)ccc1/C2=C\c1cccc(NS(C)(=O)=O)c1 [Example 421]	< 500 nM	< 500 nM
O=c1[nH]c2cc(/C=C3/c4ccc(F)cc4OCc4ncsc43)ccc2n1CCN1CCOCC1 [Example 718]	< 500 nM	< 10000 nM
Oc1cccc(C=C2c3ccccc3CCc3cc(OCCN4CCOCC4)ccc32)c1 [195(a), 3-[2-(2-Morpholin-4-yl-ethoxy)-10,11-dihydro-dibenzo[a,d]cyclohepten-5-ylidenemethyl]-phenol]	< 500 nM	< 1000 nM
COc1cccc2c1[C@H](Cc1cccc(NS(C)(=O)=O)c1)c1ccccc1OC2 [Example 737]	< 500 nM	< 500 nM
CS(=O)(=O)Nc1cccc(C(=C2c3ccccc3CCc3ccccc32)c2ccc(-c3ccccc3)cc2)c1 [Example 767]	< 500 nM	< 500 nM
Oc1cccc(C=C2c3ccccc3CCc3c(Cl)cccc32)c1 [211(b), 3-(1-Chloro-10,11-dihydro-dibenzo[a,d]cyclohepten-5-ylidenemethyl)-phenol]	< 500 nM	< 1000 nM
Cc1ccc2c(c1)CCc1ccccc1C2=Cc1ccc(NS(C)(=O)=O)cc1 [Example 309]	< 500 nM	< 1000 nM
CS(=O)(=O)Nc1cccc(CC2c3ccc(F)cc3CCc3ncccc32)c1 (stereo not shown) [Example 520]	< 500 nM	< 500 nM
OCc1ccc(C=C2c3ccccc3CCc3ccccc32)cc1 [Example 76, [4-(10,11-Dihydro-dibenzo[a,d]cyclohepten-5-ylidenemethyl)-phenyl]-methanol]	< 1000 nM	< 500 nM
CCS(=O)(=O)Nc1cccc(C=C2c3ccccc3CCc3c(Cl)cccc32)c1 [Example 208(b), Ethanesulfonic acid [3-(1-chloro-10,11-dihydro-dibenzo[a,d]cyclohepten-5-ylidenemethyl)-phenyl]-amide]	< 500 nM	< 500 nM
Cc1cccc2c1CCc1ccccc1C2=Cc1ccc(NS(C)(=O)=O)cc1 [Example 307]	< 500 nM	< 1000 nM
CS(=O)(=O)Nc1cccc(C=C2c3cccc(F)c3CCc3c(F)cccc32)c1 [Example 201, N-[3-(1,9-Difluoro-10,11-dihydro-dibenzo[a,d]cyclohepten-5-ylidenemethyl)-phenyl]-methanesulfonamide]	< 500 nM	< 500 nM

The remaining lines, values ahead:

Ki (human MR)	Ki (glucocorticoid receptor)	Compound
< 500 nM	< 500 nM	COc1ccc2c(c1)OCc1ccccc1/C2=C\c1cccc(NS(C)(=O)=O)c1 [Example 661]
< 500 nM	< 500 nM	COc1ccc2c(c1)CCc1ccccc1C2=Cc1cccc(O)c1 (mixture of isomers) [Example 167, 3-(2-Methoxy-10,11-dihydro-dibenzo[a,d]cyclohepten-5-ylidenemethyl)-phenol]
< 500 nM	< 500 nM	CS(=O)(=O)Nc1cccc(/C=C2\c3ccccc3CCc3cc(OCCN4CCOCC4)ccc32)c1 [Example 196, N-{3-[2-(2-Morpholin-4-yl-ethoxy)-10,11-dihydro-dibenzo[a,d]cyclohepten-5-ylidenemethyl]-phenyl}-methanesulfonamide]
< 500 nM	< 500 nM	Cc1ccc2c(c1)CSc1ccccc1C2=Cc1cccc(NS(C)(=O)=O)c1 [Example 740]
< 500 nM	< 500 nM	CS(=O)(=O)Nc1cccc(/C=C2\c3ccccc3CCc3sc(Cl)cc32)c1 [Example 481, N-[3-(2-Chloro-9,10-dihydro-1-thia-benzo[f]azulen-4-ylidenemethyl)-phenyl]-methanesulfonamide]
< 500 nM	< 500 nM	CS(=O)(=O)Nc1cccc(/C=C2\c3ccccc3CCc3ccsc32)c1 [Example 501]
< 1000 nM	< 10000 nM	COC(=O)c1ccc2c(c1)/C(=C\c1cccc(NS(C)(=O)=O)c1)c1ccccc1CO2 [Example 659]
< 1000 nM	< 10000 nM	CN(c1cccc(/C=C2\c3ccccc3COc3cc(Cl)ccc32)c1)S(C)(=O)=O [Example 667]
< 500 nM	< 500 nM	CS(=O)(=O)Nc1cccc(C=C2c3ccccc3CCc3ccccc32)c1 [Example 90, N-[3-(10,11-Dihydro-dibenzo[a,d]cyclohepten-5-ylidenemethyl)-phenyl]-methanesulfonamide]
< 500 nM	< 500 nM	CS(=O)(=O)Nc1cccc(/C=C2/c3ccccc3CCc3sccc32)c1 [Example 476]
< 500 nM	< 500 nM	CS(=O)(=O)Nc1cccc(/C=C2\c3ccccc3CCc3cc(NS(C)(=O)=O)ccc32)c1 [Example 339]
< 500 nM	< 500 nM	CS(=O)(=O)Nc1cccc(C=C2c3ccccc3CCc3c(Cl)cccc32)c1 (mixture of isomers) [Example 205(a), N-[3-(1-Chloro-10,11-dihydro-dibenzo[a,d]cyclohepten-5-ylidenemethyl)-phenyl]-methanesulfonamide]
